Laboratory results: patent US20120101083A1, “S1P1 AGONISTS COMPRISING A BICYCLIC N-CONTAINING RING” (GLAXO GROUP LIMITED, priority 2009, published 2012)
Structures can show the parent of a compound that is named as a salt. Each block holds one compound with its values, some of them ahead of it.

What was measured:
[1] = molecular target: T1, S1P1 (PathHunter CHO-K1 EDG1 β-Arrestin cell line) (Homo sapiens, UniProt P21453); assay: S1P-1 β-Arrestin recruitment assay; assay type: cell-based; conditions: CHO-K1 EDG1 β-Arrestin cells, chemi-luminescence
T1 construct: host or cells: PathHunter CHO-K1 EDG1 β-Arrestin cell line
Description: S1P-1 β-Arrestin Recruitment Assay
β-Arrestin recruitment assays were carried out using the PathHunter CHO-K1 EDG1
β-Arrestin cell line (DiscoveRx Corporation) in a chemi-luminescence detection assay. This cell line stably expresses β-Arrestin 2 and S1P1 fused to complementing portions of β-galactosidase (‘EA’ and ‘pro-link’, respectively) which associate upon Arrestin recruitment to form functional β-galactosidase enzyme.
Cells were grown to 80% confluency in Growth Medium (F12 nutrient HAMS supplemented with 10% heat-inactivated USA FBS, 1% L-glutamax, 800 μg/ml Geneticin and 300 μg/ml Hygromycin). Cells were harvested from the flask using Enzyme Free Cell Dissociation Buffer (Gibco) and washed from flasks with Optimem solution (Gibco). Cells were then centrifuged at 1000 rpm for 2-3 min and resuspended in Assay Buffer (Prepared from Sigma kit H1387 supplemented with 20 ml/L HEPES, 4.7 ml/L NaHCO3, 0.1% pluronic acid F-68 solution, 0.1% BSA and adjusted to pH 7.4 using sodium hydroxide at 1×10^6 cells/ml. Cells were dispensed into assay plates containing compounds (100n1/well of a solution of test compound in 100% DMSO) at 1×10^4 cells/well and incubated at 37° C./5% CO2 for 90 min followed by 15 min at room temperature. 5 μl detection mix (1 part Galacton Star, 5 parts Emerald II, 19 parts Assay Buffer; DiscoveRx) were added per well and the plates incubated at room temperature for 60 min. Luminescence was quantified using a Viewlux plate reader.

[2] = molecular target: T2, S1P1 receptor (S1P1 expressing RH7777 membranes) (Homo sapiens, UniProt P21453); assay: S1P1 GTPγS assay; assay type: biochemical; conditions: tested in one of the above S1P1 assays (two GTPγS formats)
T2 construct: expressed in transfected cells; host or cells: RH7777 cells (membranes)
How it was run: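 Membranes from RH7777 cells expressing human S1P1 (1.5 μg/well) precoupled 30 min on ice to WGA SPA beads in 20 mM HEPES pH 7.4, 10 mM MgCl2, 100 mM NaCl, with 10 μM GDP and 90 μg/ml saponin. [35S]-GTPγS 0.5 nM final added with compound; SPA signal read immediately.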

T1 sequence (P21453 whole entry): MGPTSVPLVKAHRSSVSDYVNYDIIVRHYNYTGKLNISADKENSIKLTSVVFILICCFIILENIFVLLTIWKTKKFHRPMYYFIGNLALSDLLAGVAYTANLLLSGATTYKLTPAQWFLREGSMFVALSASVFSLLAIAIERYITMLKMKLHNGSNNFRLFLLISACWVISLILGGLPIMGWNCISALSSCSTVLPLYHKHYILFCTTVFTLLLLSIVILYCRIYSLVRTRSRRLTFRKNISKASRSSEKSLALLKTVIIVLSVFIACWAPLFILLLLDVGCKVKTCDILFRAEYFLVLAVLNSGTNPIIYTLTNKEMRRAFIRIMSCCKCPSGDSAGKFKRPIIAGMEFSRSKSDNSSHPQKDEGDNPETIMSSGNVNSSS
T1 sequence (P32121 whole entry partner): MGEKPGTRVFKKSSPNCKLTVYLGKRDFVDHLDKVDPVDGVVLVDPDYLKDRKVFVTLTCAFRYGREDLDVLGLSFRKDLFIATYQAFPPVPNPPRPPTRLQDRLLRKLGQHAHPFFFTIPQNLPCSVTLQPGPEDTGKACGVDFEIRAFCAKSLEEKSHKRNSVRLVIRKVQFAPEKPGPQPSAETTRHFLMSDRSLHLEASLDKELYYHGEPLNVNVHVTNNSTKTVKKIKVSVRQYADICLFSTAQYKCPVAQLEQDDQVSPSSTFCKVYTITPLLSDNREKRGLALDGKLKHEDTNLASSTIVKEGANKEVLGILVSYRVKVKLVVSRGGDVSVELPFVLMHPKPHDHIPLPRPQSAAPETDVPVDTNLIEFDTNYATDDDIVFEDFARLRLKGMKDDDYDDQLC
T2 sequence (P21453 whole entry): as the sequence (P21453 whole entry) above

SMILES: Cc1c(-c2nnc(-c3ccc(OC(C)C)c(C#N)c3)s2)ccc2c1CCN(CCC(N)=O)C2 [Example 10, 3-[6-(5-{3-Cyano-4-[(1-methylethyl)oxy]phenyl}-1,3,4-thiadiazol-2-yl)-5-methyl-3,4-dihydro-2(1H)-isoquinolinyl]propanamide]
EC50 [1]: ≤ 10 nM
EC50 [2]: ≤ 100 nM

SMILES: CC(C)Oc1ccc(-c2nc(-c3ccc4c(c3)CCN(CCCC(N)=O)CC4)no2)cc1C#N [Example 25, 4-[7-(5-{3-Cyano-4-[(1-methylethyl)oxy]phenyl}-1,2,4-oxadiazol-3-yl)-1,2,4,5-tetrahydro-3H-3-benzazepin-3-yl]butanamide]
EC50 [1]: ≤ 10 nM
EC50 [2]: ≤ 100 nM

SMILES: Cc1c(-c2noc(-c3ccc(OC(C)C)c(C#N)c3)n2)ccc2c1CCN(C(=O)CCN)C2 [Example 39, 5-[3-(2-β-Alanyl-5-methyl-1,2,3,4-tetrahydro-6-isoquinolinyl)-1,2,4-oxadiazol-5-yl]-2-[(1-methylethyl)oxy]benzonitrile hydrochloride]
EC50 [1]: ≤ 10 nM
EC50 [2]: ≤ 100 nM

SMILES: CNCCC(=O)N1CCc2c(ccc(-c3noc(-c4ccc(OC(C)C)c(C#N)c4)n3)c2C)C1 [Example 40, 2-[(1-methylethyl)oxy]-5-{3-[5-methyl-2-(N-methyl-b-alanyl)-1,2,3,4-tetrahydro-6-isoquinolinyl]-1,2,4-oxadiazol-5-yl}benzonitrile hydrochloride]
EC50 [1]: ≤ 10 nM
EC50 [2]: ≤ 100 nM

SMILES: Cc1c(-c2noc(-c3ccc(OC(C)C)c(C#N)c3)n2)ccc2c1CCN(C(=O)CN)C2 [Example 42, 5-[3-(2-Glycyl-5-methyl-1,2,3,4-tetrahydro-6-isoquinolinyl)-1,2,4-oxadiazol-5-yl]-2-[(1-methylethyl)oxy]benzonitrile hydrochloride]
EC50 [1]: ≤ 10 nM
EC50 [2]: ≤ 100 nM

SMILES: CNC(=O)CCN1CCc2c(ccc(-c3noc(-c4ccc(OC(C)C)c(C#N)c4)n3)c2C)C1 [Example 43, 3-[6-(5-{3-cyano-4-[(1-methylethyl)oxy]phenyl}-1,2,4-oxadiazol-3-yl)-5-methyl-3,4-dihydro-2(1H)-isoquinolinyl]-N-methylpropanamide]
EC50 [1]: ≤ 10 nM
EC50 [2]: ≤ 10 nM

SMILES: CCNC(=O)CCCN1CCc2ccc(-c3noc(-c4ccc(OC(C)C)c(C#N)c4)n3)cc2CC1 [Example 44, 4-[7-(5-{3-cyano-4-[(1-methylethyl)oxy]phenyl}-1,2,4-oxadiazol-3-yl)-1,2,4,5-tetrahydro-3H-3-benzazepin-3-yl]-N-ethylbutanamide]
EC50 [1]: ≤ 10 nM
EC50 [2]: ≤ 100 nM

SMILES: CC(C)Oc1ccc(-c2nnc(-c3ccc4c(c3)CCN(CCC(N)=O)C4)s2)cc1C#N [Example 47, 3-[6-(5-{3-cyano-4-[(1-methylethyl)oxy]phenyl}-1,3,4-thiadiazol-2-yl)-3,4-dihydro-2(1H)-isoquinolinyl]propanamide]
EC50 [1]: ≤ 100 nM
EC50 [2]: ≤ 1000 nM

SMILES: CNCCC(=O)N1CCc2ccc(-c3noc(-c4ccc(OC(C)C)c(C#N)c4)n3)cc2CC1 [Example 67, 5-{3-[3-(N-methyl-b-alanyl)-2,3,4,5-tetrahydro-1H-3-benzazepin-7-yl]-1,2,4-oxadiazol-5-yl}-2-[(1-methylethyl)oxy]benzonitrile]
EC50 [1]: ≤ 100 nM
EC50 [2]: ≤ 100 nM

SMILES: CCOc1ccc(-c2nc(-c3ccc4c(c3)CCN(CC(O)CO)CC4)no2)cc1C#N (stereo not drawn) [Example 70, 5-{3-[3-(2,3-dihydroxypropyl)-2,3,4,5-tetrahydro-1H-3-benzazepin-7-yl]-1,2,4-oxadiazol-5-yl}-2-(ethyloxy)benzonitrile]
EC50 [1]: ≤ 100 nM
EC50 [2]: ≤ 100 nM

Results, then the compound that gave them:

EC50 [1]: ≤ 10 nM
EC50 [2]: ≤ 100 nM
SMILES: Cc1c(-c2noc(-c3ccc(OC(C)C)c(C#N)c3)n2)ccc2c1CCN(CC(O)CO)C2 (stereo not drawn) [Example 6, 5-{3-[2-(2,3-Dihydroxypropyl)-5-methyl-1,2,3,4-tetrahydro-6-isoquinolinyl]-1,2,4-oxadiazol-5-yl}-2-[(1-methylethyl)oxy]benzonitrile]

EC50 [1]: ≤ 10 nM
EC50 [2]: ≤ 100 nM
SMILES: Cc1c(-c2noc(-c3ccc(OC(C)C)c(C#N)c3)n2)ccc2c1CCN(CCO)C2 [Example 7, 5-{3-[2-(2-Hydroxyethyl)-5-methyl-1,2,3,4-tetrahydro-6-isoquinolinyl]-1,2,4-oxadiazol-5-yl}-2-[(1-methylethyl)oxy]benzonitrile]

EC50 [1]: ≤ 10 nM
EC50 [2]: ≤ 100 nM
SMILES: Cc1c(-c2noc(-c3ccc(OC(C)C)c(C#N)c3)n2)ccc2c1CCN(CCCO)C2 [Example 8, 5-{3-[2-(3-Hydroxypropyl)-5-methyl-1,2,3,4-tetrahydro-6-isoquinolinyl]-1,2,4-oxadiazol-5-yl}-2-[(1-methylethyl)oxy]benzonitrile]

EC50 [1]: ≤ 100 nM
EC50 [2]: ≤ 100 nM
SMILES: COCCN1CCc2c(ccc(-c3noc(-c4ccc(OC(C)C)c(C#N)c4)n3)c2C)C1 [Example 9, 2-[(1-Methylethyl)oxy]-5-(3-{5-methyl-2-[2-(methyloxy)ethyl]-1,2,3,4-tetrahydro-6-isoquinolinyl}-1,2,4-oxadiazol-5-yl)benzonitrile]

EC50 [1]: ≤ 10 nM
EC50 [2]: ≤ 100 nM
SMILES: CC(C)Oc1ccc(-c2nc(-c3ccc4c(c3)CCN(CCC(N)=O)CC4)no2)cc1C#N [Example 22, 3-[7-(5-{3-Cyano-4-[(1-methylethyl)oxy]phenyl}-1,2,4-oxadiazol-3-yl)-1,2,4,5-tetrahydro-3H-3-benzazepin-3-yl]propanamide]

EC50 [1]: ≤ 10 nM
EC50 [2]: ≤ 100 nM
SMILES: CNC(=O)CCCN1CCc2ccc(-c3noc(-c4ccc(OC(C)C)c(C#N)c4)n3)cc2CC1 [Example 24, 4-[7-(5-{3-Cyano-4-[(1-methylethyl)oxy]phenyl}-1,2,4-oxadiazol-3-yl)-1,2,4,5-tetrahydro-3H-3-benzazepin-3-yl]-N-methylbutanamide]

EC50 [1]: ≤ 10 nM
EC50 [2]: ≤ 100 nM
SMILES: CC(C)Oc1ccc(-c2nc(-c3ccc4c(c3)CCN(CCCC(=O)N(C)C)CC4)no2)cc1C#N [Example 26, 4-[7-(5-{3-Cyano-4-[(1-methylethyl)oxy]phenyl}-1,2,4-oxadiazol-3-yl)-1,2,4,5-tetrahydro-3H-3-benzazepin-3-yl]-N,N-dimethylbutanamide]

EC50 [1]: ≤ 10 nM
EC50 [2]: ≤ 100 nM
SMILES: Cc1c(-c2noc(-c3ccc(OC(C)C)c(C#N)c3)n2)ccc2c1CCN(C(=O)CCCN)C2 [Example 41, 5-{3-[2-(4-Aminobutanoyl)-5-methyl-1,2,3,4-tetrahydro-6-isoquinolinyl]-1,2,4-oxadiazol-5-yl}-2-[(1-methylethyl)oxy]benzonitrile hydrochloride]

EC50 [1]: ≤ 10 nM
EC50 [2]: ≤ 10 nM
SMILES: CC(C)Oc1ccc(-c2nc(-c3ccc4c(c3)CCN(C(=O)CN)CC4)no2)cc1C#N [Example 48, 5-[3-(3-glycyl-2,3,4,5-tetrahydro-1H-3-benzazepin-7-yl)-1,2,4-oxadiazol-5-yl]-2-[(1-methylethyl)oxy]benzonitrile trifluoroacetate]

EC50 [1]: ≤ 10 nM
EC50 [2]: ≤ 100 nM
SMILES: N#Cc1cc(-c2nc(-c3ccc4c(c3)CCN(C(=O)CN)CC4)no2)ccc1OC(CF)CF [Example 54, 2-{[2-fluoro-1-(fluoromethyl)ethyl]oxy}-5-[3-(3-glycyl-2,3,4,5-tetrahydro-1H-3-benzazepin-7-yl)-1,2,4-oxadiazol-5-yl]benzonitrile]

EC50 [1]: ≤ 100 nM
EC50 [2]: ≤ 100 nM
SMILES: Cc1c(-c2noc(-c3ccc(OC(C)C)c(C#N)c3)n2)ccc2c1CCN(C(=O)[C@H](N)[C@@H](C)O)C2 [Example 56, 5-[3-(2-D-allothreonyl-5-methyl-1,2,3,4-tetrahydro-6-isoquinolinyl)-1,2,4-oxadiazol-5-yl]-2-[(1-methylethyl)oxy]benzonitrile]

EC50 [1]: ≤ 10 nM
EC50 [2]: ≤ 1000 nM
SMILES: Cc1c(-c2noc(-c3ccc(OC(C)C)c(C#N)c3)n2)ccc2c1CCN(C(CO)CO)C2 [Example 64, 5-(3-{2-[2-hydroxy-1-(hydroxymethyl)ethyl]-5-methyl-1,2,3,4-tetrahydro-6-isoquinolinyl}-1,2,4-oxadiazol-5-yl)-2-[(1-methylethyl)oxy]benzonitrile]

EC50 [1]: ≤ 100 nM
EC50 [2]: ≤ 100 nM
SMILES: CC(C)Oc1ccc(-c2nc(-c3ccc4c(c3)CCN(C(CO)CO)CC4)no2)cc1C#N [Example 68, 5-(3-{3-[2-hydroxy-1-(hydroxymethyl)ethyl]-2,3,4,5-tetrahydro-1H-3-benzazepin-7-yl}-1,2,4-oxadiazol-5-yl)-2-[(1-methylethyl)oxy]benzonitrile]

EC50 [1]: ≤ 10 nM
EC50 [2]: ≤ 100 nM
SMILES: CC(C)Oc1ccc(-c2nc(-c3ccc4c(c3)CCN(C(=O)CCN)CC4)no2)cc1C#N [Example 69, 5-[3-(3-β-alanyl-2,3,4,5-tetrahydro-1H-3-benzazepin-7-yl)-1,2,4-oxadiazol-5-yl]-2-[(1-methylethyl)oxy]benzonitrile]
